US9833433B1, “Compositions, methods of use, and methods of treatment” (priority 2013, dated 2017)

What was measured:
COX-2 = COX-2 expression in neuronal and astroglial cell-enriched cultures; type: cell-based; settings: assayed 12 hr after treatment
Experimental: Relative pure hippocampal neurons (astroglial cells<2%), mixed neurons and astroglial cells (astroglial cells ˜10%), and astroglial cell-enriched (astroglial cells>95%), and NG108-15 cell cultures were made as described previously (Sang et al, 2005; Zhang and Chen, 2008).
Primary hippocampal neurons (astroglial cells<2%), mixed neurons and astroglial cells (astroglial cells ˜10%), astroglial cell-enriched (astroglial cells>95%) and NG108-15 cells were cultured as described previously (Sang et al, 2005; Zhang and Chen, 2008). The extent of neurons and astroglial cells in culture were controlled by different treatments, which was estimated by using immunostaining with NeuN, a neuronal marker, glial fibrillary acidic protein (GFAP), an astrocytic marker, and OX-42, a microglial marker, in conjunction with DAPI staining.

[1] = test system: NF-κB p65 binding to ptgs2 promoter; type: cell-based; settings: mixed culture; Δ^9-THC 30 μM
[2] = test system: Akt, ERK, p38MAPK and NF-κB; assay: Phosphorylation of Akt, ERK, p38MAPK and NF-κB in hippocampal tissue; type: in vivo, mice; settings: Δ^9-THC 10 mg/kg
spatial memory = assay: Morris water maze test (spatial memory); type: in vivo, mice; settings: 10 mg/kg once a day for 7 days
Experimental: (§1) The classic Morris water maze and fear conditioning tests were performed to determine spatial and fear memory as described previously (Chen et al., 2012). The ‘open field’ test was conducted to detect the locomotor activity and the bar test was used to detect catalepsy (Egashira et al., 2007).
The classic Morris water maze test was used to determine spatial memory as described previously (Chen et al., 2012). A circular water tank (diameter 120 cm and 75 cm in high) was filled with water and the water was made opaque with non-toxic white paint. A round platform (diameter 15 cm) was hidden 1 cm beneath the surface of the water at the center of a given quadrant of the water tank. COX-2 KO and WT mice received training in the Morris water maze for 5 days without any treatments (naïve). […] For each trial, the mouse was released from the wall of the tank and allowed to search, find, and stand on the platform for 10 seconds within the 60-second trial period. […] During the probe test, the platform was removed from the pool, and the task performances were recorded for 60 seconds by a video-camera and the task performances, including swimming paths, speed, and time spent in each quadrant using an EthoVision video tracking system (Noldus). The time spent in each quadrant was analyzed.

catalepsy = assay: Bar test (catalepsy); type: in vivo, mice; settings: Δ^9-THC 10 mg/kg; 30, 60, and 90 min after injection
Experimental: as §1
The cataleptic effect of Δ^9-THC was detected using the bar test as described previously with modification (Egashira et al., 2007; Pertwee and Wickens, 1991). Briefly, the front paws of each mouse were placed on an elevated rod (0.5 cm in diameter and 3.5 cm from the bottom of the test box) and the duration of time that the mouse kept motionless was determined. The test was conducted 30, 60, and 90 min after Δ^9-THC injection. Celebrex was injected 30 min prior to Δ^9-THC injection.

Aβ plaques = Aβ plaques in 5XFAD APP transgenic mice (immunohistochemistry); type: in vivo; settings: Δ^9-THC 3 mg/kg once daily for 4 weeks
Experimental: Immunohistochemical analyses were performed to determine total Aβ in coronal brain sections as described previously (Chen et al., 2012). 5XFAD APP transgenic mice that vehicle, or Δ^9-THC (3 mg/kg) or Δ^9-THC+Celebrex (1 mg/kg) for 4 weeks at 4 to 6 months of age were anesthetized with ketamine/Xylazine (200/10 mg/kg) and subsequently transcardially perfused with PBS followed by 4% paraformaldehyde in phosphate buffer. The brains were quickly removed from the skulls and fixed in 4% paraformaldehyde overnight, and then transferred into the PBS containing 30% sucrose until sinking to the bottom of the small glass jars. Cryostat sectioning was made on a freezing Vibratome at 40 μm and series sections (10 to 12 slices) were collected in 0.1M phosphate buffer. […] 4′-6-Diamidino-2-phenylindole (DAPI), a fluorescent stain that binds strongly to DNA, was used it to detect cell nuclei in the sections. The sections were then mounted on slides for immunofluorescence detection using a Zeiss fluorescence microscope.

degenerated neurons = assay: Degenerated neurons by Fluoro-Jade C staining in 5XFAD APP transgenic mice; type: in vivo; settings: Δ^9-THC 3 mg/kg once daily for 4 weeks
Experimental: Degenerated neurons were detected using Fluoro-Jade C (FJC), which is an anionic dye that specifically stains the soma and neurites of degenerating neurons and thus is unique as a neurodegenerative marker. Cryostat cut sections were incubated in the solution with FJC (0.0001% solution, EMD Millipore) and DAPI (0.5 μg/ml) for 10 min, followed by 3×1-min wash with distilled water. Slices were dried naturally at room temperature without light. The images were taken using a Zeiss deconvolution microscope with SlideBook 5.0 software as described previously (Chen et al., 2012).

## CCCCCc1cc(O)c2c(c1)OC(C)(C)[C@@H]1CCC(C)=C[C@@H]21 [Δ^9-THC, Δ^9-tetrahydrocannabinol]
COX-2
  COX-2 expression in neuronal and astroglial cell-enriched cultures: CB1R-dependent increase in COX-2 expression both in neuronal and astroglial cell-enriched cultures
[1]
  binding of NF-κB p65 to ptgs2 promoter positions −419 to −428 bp: enhanced
[2]
  phosphorylation of Akt, ERK, p38MAPK and NF-κB in the hippocampus: confirmed
Spatial memory
  spatial memory and memory retention after repeated Δ^9-THC: impaired spatial memory and memory retention
catalepsy
  cataleptic effect: cataleptic and locomotor depressive effects
Aβ plaques; absence of Celebrex
  numbers of Aβ plaques: significantly reduced
Aβ plaques; presence of Celebrex 1 mg/kg
  numbers of Aβ plaques: significantly reduced
Degenerated neurons; absence of Celebrex
  numbers of degenerated neurons: significantly reduced
Degenerated neurons; presence of Celebrex 1 mg/kg
  numbers of degenerated neurons: significantly reduced
